Data from patent publication US4775662A, “Leukotriene antagonists” (SmithKline Beckman Corporation, priority 1987, dated 1988).
Where a name gives a salt, the structure may show the parent alone.

How the values were obtained:
[1] = biological target: T1, leukotriene D4 (LTD4) induced contraction of guinea pig tracheal tissues (Cavia porcellus, UniProt Q2NNR5); assay: In vitro inhibition of LTD4-induced contraction of guinea pig tracheal spiral strips (pA2); format: cell-based, guinea pig (adult male albino Hartley strain); settings: for Kb: In vitro, LTD4, guinea pig trachea, EC30 relative to carbachol, 30 min pretreatment
T1 construct: Guinea pig (adult male albino Hartley strain) tracheal spiral strips; from tissue; host or cells: guinea pig trachea (spiral strips, adult male albino Hartley strain)
T1 sequence (Q2NNR5 1-340): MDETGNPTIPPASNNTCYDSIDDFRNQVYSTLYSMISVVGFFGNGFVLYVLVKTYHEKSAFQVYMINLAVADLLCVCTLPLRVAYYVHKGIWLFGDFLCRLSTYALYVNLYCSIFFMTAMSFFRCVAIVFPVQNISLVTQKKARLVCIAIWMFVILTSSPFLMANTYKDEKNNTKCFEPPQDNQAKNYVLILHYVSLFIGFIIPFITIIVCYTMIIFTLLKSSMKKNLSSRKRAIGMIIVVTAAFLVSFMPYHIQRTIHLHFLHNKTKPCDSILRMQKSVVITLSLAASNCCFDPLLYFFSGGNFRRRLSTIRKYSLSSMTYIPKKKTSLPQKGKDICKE
Method: (§1) The leukotriene antagonist activity of the compounds of this invention is measured by the ability of the compound to inhibit leukotriene induced contraction of guinea pig tracheal tissues in vitro and to inhibit leukotriene induced bronchoconstriction in guinea pigs in vivo. The following methodologies were employed:
In vitro: Guinea pig (adult male albino Hartley strain) tracheal spiral strips of approximate dimensions 2 to 3 mm cross-sectional width and 3.5 cm length were bathed in modified Krebs buffer in jacketed 10 ml tissue bath and continously aerated with 95% O2 /5% CO2. The tissues were connected via silk suture to force displacement transducers for recording isometric tension. The tissues were equilibrated for 1 hr., pretreated for 15 minutes with meclofenamic acid (1 μM) to remove intrinsic prostaglandin responses, and then pretreated for an additional 30 minutes with either the test compound or vehicle control. A cumulative concentration-response curve for LTD4 on triplicate tissues was generated by successive increases in the bath concentration of the LTD4. In order to minimize intertissue variability, the contractions elicited by LTD4 were standardized as a percentage of the maximum response obtained to a reference agonist, carbachol (10 μM).
(§2) Calculations: The averages of the triplicate LTD4 concentration-response curves both in the presence and absence of the test compound were plotted on log graph paper. The concentration of LTD4 needed to elicit 30% of the contraction elicited by carbachol was measured and defined as the EC30. The pA2 value for the test compound was determined by the following equations: [formula] In vivo: Anesthetized, spontaneously breathing guinea pigs (Adult male albino Hartley strain) were monitored on a Buxco pulmonary mechanics computer. Changes in airway resistance (RL) were calculated by the computer on a breath-by-breath basis at isovolumic points from signals measuring airflow and transpulmonary pressure using differential pressure transducers. Animals received either test compound or vehicle control intravenously via the jugular vein. LTD4 was then injected into the jugular vein. The bronchoconstriction produced was reflected by % changes in airways resistance relative to the baseline values obtained prior to injection of the test compound or vehicle control. Each guinea pig received either vehicle control or test compound.

[2] = tested on: leukotriene (LTD4) induced bronchoconstriction in guinea pigs; assay: In vivo inhibition of LTD4-induced bronchoconstriction in anesthetized, spontaneously breathing guinea pigs (airway resistance, RL); set-up: species or system guinea pig (adult male albino Hartley strain); settings: Cavia porcellus, intravenous, LTD4 challenge, guinea pig, read-out: RL (average % inhibition of change in airway resistance)
Method: as §1, §2
Calculations: The average of 3-6 animals per treatment was calculated using the % changes in the pulmonary parameters for control and test compound-treated animals. The average % inhibition by the test compound was calculated from the following equation: [formula]

Row | Kb [1] | partial agonist (footnote to pA2) ([1]; footnote (c) to pA2 5.0) | Structure (SMILES) | inhibition in vivo at 5 mg/kg [2] | inhibition in vivo at 10 mg/kg [2]
1 | 0.631 µM | – | CCCCCCCCCCCC/C=C\[C@H](SCCC(=O)NCC(=O)O)[C@H](O)CCC(=O)O (relative stereo) [Example 3, 5-[(3-carboxymethylamino-3-oxopropyl)thio]-4-hydroxy-6(Z)-nonadecenoic acid] | 36% | –
2 | 1.26 µM | – | CCCCCCCCCCCC/C=C\[C@H](SCC(=O)O)[C@H](O)CCC(=O)O (relative stereo) [Example 5, 5-[(carboxymethyl)thio]-4-hydroxy-6(Z)-nonadecenoic acid] | – | –
3 | 0.631 µM | – | CCCCCCCCCCCC/C=C\[C@H](SCCCC(=O)O)[C@H](O)CCC(=O)O (relative stereo) [Example 6, 5-[(3-carboxypropyl)thio]-4-hydroxy-6(Z)-nonadecenoic acid] | 88% | –
4 | 7.94 µM | – | CCCCCCCCCCCC/C=C\[C@H](SCCC(N)=O)[C@H](O)CCC(=O)O (relative stereo) [Example 7, 5-[[2-(aminocarbonyl)ethyl]thio]-4-hydroxy-6(Z)-nonadecenoicacid] | 38% | –
5 | 7.94 µM | – | CCCCCCCCCCCCCC/C=C\[C@H](SCCC(=O)O)[C@H](O)CCC(=O)O (relative stereo) [Example 15, 4-hydroxy-5-[(2-carboxyethyl)thio]-6(Z)-heneicosenoic acid] | – | –
6 | 0.251 µM | – | CCCCCCCCCCCC/C=C\C(CCC(=O)O)SCCC(=O)O (centres unmarked) [Example 16, 4-[(2-carboxyethyl)thio]-5(Z)-octadecenoic acid] | – | –

More lines, now with the values behind:

Row | Structure (SMILES) | Kb [1] | partial agonist (footnote to pA2) ([1]; footnote (c) to pA2 5.0) | inhibition in vivo at 5 mg/kg [2] | inhibition in vivo at 10 mg/kg [2]
7 | CCCCCCCCCCCC/C=C\[C@H](SCCC(=O)O)[C@H](O)CCC(=O)O (relative stereo) [Example 2, 4-hydroxy-5-[(2-carboxyethyl)thio]-6(Z)-nonadecenoic acid] | 0.631 µM | – | 91% | –
8 | CCCCCCCCCCCC/C=C\[C@H](SCCC(=O)N(C)CC(=O)O)[C@H](O)CCC(=O)O (relative stereo) [Example 4, 5-[(3-carboxymethyl-N-methylamino-3-oxopropyl)thio]-4-hydroxy-6(Z)-nonadecenoic acid] | – | – | 90% | –
9 | CCCCCCCCCCCC/C=C\[C@H](SCCC(=O)O)[C@H](O)CCC(N)=O (relative stereo) [Example 12, 5-[(2-carboxyethyl)thio]-4-hydroxy-6(Z)-nonadecenamide] | 3.98 µM | – | – | –
10 | CCCCCCCCCC/C=C\[C@H](SCCC(=O)O)[C@H](O)CCC(=O)O (relative stereo) [Example 14, 4-hydroxy-5-[(2-carboxyethyl)thio]-6(Z)-heptadecenoic acid] | 5.01 µM | – | – | –
11 | CCCCCCCCCCCC/C=C\[C@H](SCC(N)C(=O)NCC(=O)O)[C@H](O)CCC(=O)O (single isomer, unassigned; isomer 4) [Example 1(i) 4(R),5(S) isomer, hydrate] | 6.31 µM | – | 96% | –
12 | CCCCCCCCCCCC/C=C\[C@@H](SCC(N)C(=O)NCC(=O)O)[C@@H](O)CCC(=O)O (single isomer, unassigned; isomer 5) [Example 1(i) 4(S),5(R) isomer, 5-[(2-amino-3-carboxymethylamino-3-oxopropyl)thio]-4-hydroxy-6(Z)-nonadecenoic acid] | 10 µM | partial agonist | – | –
13 | CCCCCCCCCCCC/C=C\[C@H](SCC(N)C(=O)O)[C@H](O)CCC(=O)O (stereo partly drawn) [Example 8(c), 4(R)-Hydroxy-5(S)-[(2-amino-2-carboxyethyl)thio]-6(Z)-nonadecenoic acid, sodium salt] | 7.94 µM | – | – | –
14 | CCCCCCCCCCCC/C=C\[C@@H](SCC(N)C(=O)O)[C@@H](O)CCC(=O)O (stereo partly drawn) [Example 8(d), 4(S)-Hydroxy-5(R)-[(2-amino-2-carboxyethyl)thio]-6(Z)-nonadecenoic acid, sodium salt] | 7.94 µM | – | – | –
15 | CCCCCCCCCCCC/C=C\[C@H](SCC(N)C(=O)NCC(N)=O)[C@H](O)CCC(=O)O (some centres unmarked) [Example 9] | 3.16 µM | – | 98% | –
16 | CCCCCCCCCCCC/C=C\C(SCCC(=O)O)C(O)CC(=O)O (centres unmarked) [Example 10, 3-hydroxy-4-[(2-carboxyethyl)thio]-5(Z)-octadecenoic acid] | – | – | – | 88%
17 | CCCCCCCCCCCC/C=C\C(CCCC(=O)O)SCCC(=O)O (centres unmarked) [Example 11, 5-[(2-carboxyethyl)thio]-6(Z)-non-adecenoic acid] | 3.16 µM | – | – | 98%
18 | CCCCCCCCCCCC/C=C\C(SCC(N)C(=O)NCC(=O)O)C(O)CCC(N)=O (centres unmarked) [Example 13] | 12.6 µM | – | – | –
